Some test systems named below: SK-MEL-2 melanoma; CCRF-CEM leukemia; OVCAR-5 ovarian; UO-31 renal; A549 NSCLC; HCT-116 colon; SF-268 CNS; COLO 205 colon.
What all share (experiment): DTP human tumour cell line panel, 48 h

Values joined by “and” are separate entries in the source; they are usually repeats but may differ in a detail not shown here. Equal entries are not always repeated.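 In this assay, cells in 96-well plates receive the compound at five concentrations for 48 hours. Endpoints are linearly interpolated between the surrounding concentrations. At the GI50, growth is halved. Definition used: TGI = concentration required for complete inhibition of growth.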 A value given as a limit tells only on which side of the number the result lay.

Here are results for 16 compounds from PubChem BioAssay (NCI).

As for `O=c1cccccc1[O-].O=c1cccccc1[O-].O=c1cccccc1[O-].[Ce+3]`, the TGI with SK-MEL-2 melanoma was 51.6 µM; with CCRF-CEM leukemia it was > 100 µM; in the assay with OVCAR-5 ovarian, > 100 µM; with UO-31 renal, 84.6 µM; in the assay with A549 NSCLC it was > 100 µM; in the assay on HCT-116 colon, 54.3 µM.

`CCCCn1c2ccccc2c2ccc3c(c21)C(=O)C=CC3=O`: the TGI in the assay with SK-MEL-2 melanoma, in the assay with SF-268 CNS, in the assay on OVCAR-5 ovarian, in the assay with UO-31 renal, in the assay with COLO 205 colon and in the assay on A549 NSCLC was > 100 µM in each case. Moreover, in the assay on HCT-116 colon, the TGI is > 100 µM.

Consider `CC1CCCc2c1c1ccc3c(O)cccc3c1oc2=O` (stereo unspecified), for which the concentration for total growth inhibition (TGI) in the assay with SK-MEL-2 melanoma is > 100 µM; in the assay on CCRF-CEM leukemia, > 100 µM; with SF-268 CNS, 70.8 µM; in the assay with OVCAR-5 ovarian it was > 100 µM; in the assay with UO-31 renal, > 100 µM; with COLO 205 colon it was > 100 µM. Moreover, the TGI with A549 NSCLC and in the assay on HCT-116 colon was > 100 µM throughout.

With `S=c1sc2cscc2s1`, the TGI was > 100 µM with SK-MEL-2 melanoma; 78 µM with CCRF-CEM leukemia; 64.5 µM in the assay with SF-268 CNS; > 100 µM with OVCAR-5 ovarian; 35.6 µM in the assay with UO-31 renal; 40.9 µM in the assay on COLO 205 colon. Further, the TGI in the assay on A549 NSCLC was 37.5 µM; in the assay on HCT-116 colon it was 37.7 µM.

Consider `CC(=O)[O-].[Zn].c1ccc(/C(=N\Nc2ccccn2)c2ccccn2)cc1`, for which the TGI in the assay with SK-MEL-2 melanoma was 10.6 µM; with CCRF-CEM leukemia it was 0.22 µM and 1.22 µM; in the assay with SF-268 CNS, 3.13 µM; with UO-31 renal it was 16.5 µM; with A549 NSCLC, 5.48 µM; with HCT-116 colon, 1.26 µM. The GI50 in the assay on SF-268 CNS was 0.421 µM; with UO-31 renal, 0.332 µM; in the assay on A549 NSCLC it was 0.447 µM.

Regarding `O=C(NC1C2CC3CC(C2)CC1C3)/C(Cl)=C1/Sc2ccccc2NC1=O` (stereo unspecified), the TGI with CCRF-CEM leukemia, in the assay with SF-268 CNS, in the assay on OVCAR-5 ovarian, with UO-31 renal, with COLO 205 colon and with A549 NSCLC was > 100 µM in each case. In addition, the concentration for total growth inhibition (TGI) in the assay on HCT-116 colon was > 100 µM.

For `OCC(O)C(O)C(O)c1nn(-c2ccccc2)c2nc3cc(Cl)c(Cl)cc3nc12` (stereo unspecified), the TGI is 98 µM in the assay with SK-MEL-2 melanoma; > 100 µM with CCRF-CEM leukemia; > 100 µM in the assay on SF-268 CNS; 83.6 µM with OVCAR-5 ovarian; > 100 µM in the assay on UO-31 renal; > 100 µM in the assay on COLO 205 colon. The TGI with A549 NSCLC and in the assay with HCT-116 colon was > 100 µM in each case.

As for `C=C1CCCC2[C@](C)(CC3=C(O)C(=O)C=C(OC)C3=O)[C@@H](C)CC[C@]12C` (stereo partly specified), the TGI in the assay with SK-MEL-2 melanoma is 12.5 µM; with CCRF-CEM leukemia, 14.6 µM; with SF-268 CNS, > 100 µM; with COLO 205 colon, 21.2 µM; in the assay on A549 NSCLC it was 11 µM; in the assay with HCT-116 colon, 17.7 µM.

As to `CC(=O)/C=C1\CC(=O)Nc2ccccc2N1`, the TGI in the assay on SK-MEL-2 melanoma, in the assay with CCRF-CEM leukemia, in the assay on SF-268 CNS, in the assay with OVCAR-5 ovarian, in the assay with UO-31 renal and in the assay on A549 NSCLC was > 100 µM in each case. Further, the TGI in the assay with HCT-116 colon was > 100 µM.

For the compound `CC(=O)OC1CCC2C(=CCC3C2(C)C(=O)CC2(C)C(C4(C)OC(C(C)C)=CC4=O)C(O)CC32C)C1(C)C` (stereo unspecified), the TGI was 62.3 µM with SK-MEL-2 melanoma; 56.5 µM in the assay on CCRF-CEM leukemia; > 100 µM in the assay on SF-268 CNS; > 100 µM in the assay on OVCAR-5 ovarian; > 100 µM in the assay with UO-31 renal; > 100 µM in the assay on COLO 205 colon. The TGI with A549 NSCLC was > 100 µM; with HCT-116 colon it was > 10 µM.

As to `O=C(O)c1ccccc1N=Nc1ccc2oc(=O)c(C(=O)Nc3ccccc3)cc2c1`, the TGI in the assay on CCRF-CEM leukemia, in the assay with UO-31 renal, in the assay with COLO 205 colon, with A549 NSCLC and with HCT-116 colon was > 100 µM in each case.

Regarding `CC(C)C(=O)[O-].CC(C)C(=O)[O-].N.N.N.N.[Co+3].[O-][Cl+3]([O-])([O-])[O-]`, the GI50 in the assay with SK-MEL-2 melanoma, with CCRF-CEM leukemia, with SF-268 CNS, in the assay with OVCAR-5 ovarian, in the assay with UO-31 renal and in the assay on COLO 205 colon was > 100 µM throughout. For the same compound, the GI50 in the assay with A549 NSCLC and in the assay on HCT-116 colon was > 100 µM in each case. The TGI with SK-MEL-2 melanoma, with CCRF-CEM leukemia, with SF-268 CNS, in the assay on OVCAR-5 ovarian, in the assay on UO-31 renal and with COLO 205 colon was > 100 µM throughout. Also, the TGI with A549 NSCLC and in the assay with HCT-116 colon was > 100 µM each time.

In the case of `CCOC(=O)C(C)(C)Oc1ccc2c(-c3ccc(Cl)cc3)c(-c3ccc(Cl)cc3)c(=O)oc2c1`, the TGI with SK-MEL-2 melanoma, in the assay on CCRF-CEM leukemia, in the assay with SF-268 CNS, in the assay with UO-31 renal, in the assay on COLO 205 colon and in the assay on A549 NSCLC was > 100 µM each time. The TGI with HCT-116 colon was > 100 µM.

With `CCN(CC)c1ccc(N=C2C=C(Cl)C(=O)c3ncccc32)c(C)c1`, the TGI in the assay on SK-MEL-2 melanoma was > 100 µM; in the assay on CCRF-CEM leukemia it was > 100 µM; in the assay on UO-31 renal it was 41.6 µM; with COLO 205 colon it was 15.8 µM; in the assay on A549 NSCLC, 48.5 µM; with HCT-116 colon, 11.6 µM.

On to `CC(NC(=O)C(=O)N/N=C1\C[C@@H](c2ccccc2)Nc2ccccc21)c1ccccc1` (stereo partly specified), for which the TGI with SK-MEL-2 melanoma, in the assay with SF-268 CNS, in the assay on OVCAR-5 ovarian, in the assay on UO-31 renal, with COLO 205 colon and in the assay with A549 NSCLC was > 100 µM throughout. The TGI with HCT-116 colon is > 100 µM.

On to `CCOC(=O)c1ccc(N2C(=O)Cc3ccccc3C2=O)cc1`, for which the TGI in the assay on SK-MEL-2 melanoma, in the assay on SF-268 CNS, in the assay on OVCAR-5 ovarian, in the assay with UO-31 renal, in the assay on A549 NSCLC and with HCT-116 colon was > 100 µM in each case.
